Measurements as given in patent US8445474B2 (Knopp Neurosciences, Inc., priority 2006, dated 2013).

Key:
[1] = Dissolution of exploratory combination capsules in simulated gastric fluid (SGF), chiral HPLC; format: physicochemical; details: for Average Concentrations of the enantiomer, Experiments SGF (1) and SGF (2) / Concentration of the enantiomer in SGF (1) Vessel / Concentration of the enantiomer in SGF (2) Vessel: combination capsule in 10 mL SGF pH 1.2
Description: Drug Formulation. […] Normal phase, chiral HPLC was used for monitoring the release of R(+) pramipexole and S(−) pramipexole in simulated gastric fluid (SGF).
Dissolution Study. SGF (pH=1.2) was prepared by diluting 1 g of sodium chloride and 7 mL of concentrated HCl to 1 L with HPLC grade water. The dissolution experiment was run as follows: an exploratory combination capsule was placed in 10 mL of SGF and shaken under ambient conditions at 600 RPM for 60 minutes. Aliquots of 100 μL were pulled from the same sample vessel at various time points. The 100 μL samples of SGF solution were evaporated using a nitrogen bleed and heat and the residues were dissolved in the HPLC diluent and filtered through 0.45 μm syringe filters. […] This experiment was performed in duplicate (experiment numbers SGF (1) (see Table 4) and SGF (2) (see Table 5)) and the results are also provided in average values (see Table 6). The tables and figures below summarize the results from these experiments.

dopamine receptors = details: present data
[2] = biological target: human cloned dopamine receptor D2S (Homo sapiens, UniProt P14416); details: R(+) versus S(−)
Description: (§1) Eight concentrations were tested: 50 nM, 100 nM, 500 nM, 1 μM, 5 μM, 10 μM, 50 μM, 100 μM. These concentrations were tested in either CHO (Chinese hamster ovary) or HEK293 (human embryonic kidney) cell lines expressing human cloned dopamine receptors (D1, D2S, D2L, D3, D4, D5). The radio-ligand in each case was either [^3H] spiperone or [^3H] SCH23390 (a classic D1 dopamine receptor antagonist R-(+)-7-Chloro-8-hydroxy-3-methyl-1-phenyl-2,3,4,5-tetrahydro-1H-3-benzazepine hydrochloride), both antagonists at 0.3 nM. Incubation was for 60 minutes, and data were collected for 2 repeats using scintillation counting.

[3] = biological target: human cloned dopamine receptor D2L (Homo sapiens, UniProt P14416); details: R(+) versus S(−)
Description: as §1

[4] = biological target: human cloned dopamine receptor D3 (Homo sapiens, UniProt P35462); assay: biochemical
Description: as §1

[5] = biological target: human cloned dopamine receptor D5 (Homo sapiens, UniProt P21918); assay: biochemical
Description: as §1

[6] = 4320 minutes, stored benchtop in clear vial
[7] = non-naïve male beagle dogs, single oral dose

human cloned dopamine receptor D3, sequence (P35462 whole entry): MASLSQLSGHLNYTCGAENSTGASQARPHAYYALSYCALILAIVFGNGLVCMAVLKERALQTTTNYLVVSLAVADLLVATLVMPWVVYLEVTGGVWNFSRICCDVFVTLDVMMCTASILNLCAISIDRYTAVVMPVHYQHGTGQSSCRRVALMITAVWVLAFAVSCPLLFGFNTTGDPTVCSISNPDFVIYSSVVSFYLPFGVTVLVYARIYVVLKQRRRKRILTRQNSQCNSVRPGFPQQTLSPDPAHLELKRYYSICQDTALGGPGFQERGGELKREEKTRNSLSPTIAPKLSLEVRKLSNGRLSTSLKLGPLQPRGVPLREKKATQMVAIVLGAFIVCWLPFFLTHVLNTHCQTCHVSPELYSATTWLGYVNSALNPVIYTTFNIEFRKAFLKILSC
human cloned dopamine receptor D5, sequence (P21918 whole entry): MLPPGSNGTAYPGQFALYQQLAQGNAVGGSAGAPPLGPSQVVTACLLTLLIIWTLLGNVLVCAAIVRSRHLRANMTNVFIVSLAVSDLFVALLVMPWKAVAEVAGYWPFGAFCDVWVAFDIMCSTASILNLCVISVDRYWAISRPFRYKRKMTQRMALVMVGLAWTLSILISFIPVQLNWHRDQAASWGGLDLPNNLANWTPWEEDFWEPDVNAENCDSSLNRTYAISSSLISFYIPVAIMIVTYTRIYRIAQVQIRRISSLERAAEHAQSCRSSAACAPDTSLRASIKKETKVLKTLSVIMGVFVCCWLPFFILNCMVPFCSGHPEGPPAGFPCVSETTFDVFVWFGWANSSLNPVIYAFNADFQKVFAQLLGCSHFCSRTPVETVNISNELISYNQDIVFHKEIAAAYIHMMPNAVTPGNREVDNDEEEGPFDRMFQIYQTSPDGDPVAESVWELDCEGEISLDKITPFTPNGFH
human cloned dopamine receptor D2L, sequence (P14416 whole entry): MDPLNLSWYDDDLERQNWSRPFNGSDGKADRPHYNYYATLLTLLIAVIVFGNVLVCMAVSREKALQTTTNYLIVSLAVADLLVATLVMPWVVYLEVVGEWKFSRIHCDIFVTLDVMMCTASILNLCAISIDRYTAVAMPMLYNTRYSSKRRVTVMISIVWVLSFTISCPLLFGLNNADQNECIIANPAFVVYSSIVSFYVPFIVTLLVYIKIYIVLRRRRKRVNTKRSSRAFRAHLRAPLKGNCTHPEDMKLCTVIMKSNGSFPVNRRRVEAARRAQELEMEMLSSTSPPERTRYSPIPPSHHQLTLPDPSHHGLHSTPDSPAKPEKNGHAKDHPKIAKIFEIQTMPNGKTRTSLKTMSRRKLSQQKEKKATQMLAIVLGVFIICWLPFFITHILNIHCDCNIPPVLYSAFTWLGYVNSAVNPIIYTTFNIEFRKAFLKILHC
human cloned dopamine receptor D2S, sequence (P14416 1-414 isoform P14416-2): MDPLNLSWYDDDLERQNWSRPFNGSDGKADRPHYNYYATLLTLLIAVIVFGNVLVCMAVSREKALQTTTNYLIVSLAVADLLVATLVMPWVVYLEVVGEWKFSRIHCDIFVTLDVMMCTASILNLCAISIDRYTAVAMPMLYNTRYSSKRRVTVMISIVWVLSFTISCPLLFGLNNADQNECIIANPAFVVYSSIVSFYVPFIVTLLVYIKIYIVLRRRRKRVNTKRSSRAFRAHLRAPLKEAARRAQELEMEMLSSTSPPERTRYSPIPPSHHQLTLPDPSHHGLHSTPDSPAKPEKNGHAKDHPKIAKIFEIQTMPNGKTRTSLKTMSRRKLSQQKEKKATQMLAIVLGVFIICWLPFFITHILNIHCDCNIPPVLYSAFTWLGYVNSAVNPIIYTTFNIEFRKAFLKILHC
Description for male beagle dogs: Doses were administered orally by gavage and clinical observations were taken continuously following dosing: hourly for the first four hours, and then twice daily cage-side observations for the duration of the inter-dose or post-dose interval. Observations were made of clinical signs, mortality, injury and availability of food and water. Animals were fasted for 24 hr prior to dosing. Dogs in each group were exposed to only one drug, or the combination; each dose was administered only once, with a subsequent dose administered after a recovery period of 4 days.

## CCCN[C@H]1CCc2nc(N)sc2C1 (single isomer, unassigned) [R(+) pramipexole]
[1]; 3 minutes
  Average Concentrations of the enantiomer, Experiments SGF (1) and SGF (2): 0 mg/mL
  Concentration of the enantiomer in SGF (1) Vessel: 0 µg/mL
  Concentration of the enantiomer in SGF (2) Vessel: 0 µg/mL
[1]; 4 minutes
  Average Concentrations of the enantiomer, Experiments SGF (1) and SGF (2): 0.002035 mg/mL
  Concentration of the enantiomer in SGF (1) Vessel: 1.824 µg/mL
  Concentration of the enantiomer in SGF (2) Vessel: 2.245 µg/mL
[1]; 6 minutes
  Average Concentrations of the enantiomer, Experiments SGF (1) and SGF (2): 0.06814 mg/mL
  Concentration of the enantiomer in SGF (1) Vessel: 42.59 µg/mL
  Concentration of the enantiomer in SGF (2) Vessel: 93.7 µg/mL
[1]; 8 minutes
  Average Concentrations of the enantiomer, Experiments SGF (1) and SGF (2): 7.346 mg/mL
  Concentration of the enantiomer in SGF (1) Vessel: 6441 µg/mL
  Concentration of the enantiomer in SGF (2) Vessel: 8250 µg/mL
[1]; 10 minutes
  Average Concentrations of the enantiomer, Experiments SGF (1) and SGF (2): 8.615 mg/mL
  Concentration of the enantiomer in SGF (1) Vessel: 8443 µg/mL
  Concentration of the enantiomer in SGF (2) Vessel: 8787 µg/mL
[1]; 11 minutes
  Average Concentrations of the enantiomer, Experiments SGF (1) and SGF (2): 8.938 mg/mL
  Concentration of the enantiomer in SGF (1) Vessel: 8746 µg/mL
  Concentration of the enantiomer in SGF (2) Vessel: 9131 µg/mL
[1]; 12 minutes
  Average Concentrations of the enantiomer, Experiments SGF (1) and SGF (2): 8.927 mg/mL
  Concentration of the enantiomer in SGF (1) Vessel: 8767 µg/mL
  Concentration of the enantiomer in SGF (2) Vessel: 9086 µg/mL
[1]; 14 minutes
  Average Concentrations of the enantiomer, Experiments SGF (1) and SGF (2): 9.164 mg/mL
  Concentration of the enantiomer in SGF (1) Vessel: 9236 µg/mL
  Concentration of the enantiomer in SGF (2) Vessel: 9092 µg/mL
[1]; 15 minutes
  Average Concentrations of the enantiomer, Experiments SGF (1) and SGF (2): 9.463 mg/mL
  Concentration of the enantiomer in SGF (1) Vessel: 9510 µg/mL
  Concentration of the enantiomer in SGF (2) Vessel: 9416 µg/mL
[1]; 17 minutes
  Average Concentrations of the enantiomer, Experiments SGF (1) and SGF (2): 9.438 mg/mL
  Concentration of the enantiomer in SGF (1) Vessel: 9398 µg/mL
  Concentration of the enantiomer in SGF (2) Vessel: 9477 µg/mL
[1]; 18 minutes
  Average Concentrations of the enantiomer, Experiments SGF (1) and SGF (2): 9.258 mg/mL
  Concentration of the enantiomer in SGF (1) Vessel: 9127 µg/mL
  Concentration of the enantiomer in SGF (2) Vessel: 9390 µg/mL
[1]; 20 minutes
  Average Concentrations of the enantiomer, Experiments SGF (1) and SGF (2): 9.475 mg/mL
  Concentration of the enantiomer in SGF (1) Vessel: 9457 µg/mL
  Concentration of the enantiomer in SGF (2) Vessel: 9493 µg/mL
[1]; 25 minutes
  Average Concentrations of the enantiomer, Experiments SGF (1) and SGF (2): 9.61 mg/mL
  Concentration of the enantiomer in SGF (1) Vessel: 9579 µg/mL
  Concentration of the enantiomer in SGF (2) Vessel: 9641 µg/mL
[1]; 30 minutes
  Average Concentrations of the enantiomer, Experiments SGF (1) and SGF (2): 9.65 mg/mL
  Concentration of the enantiomer in SGF (1) Vessel: 9894 µg/mL
  Concentration of the enantiomer in SGF (2) Vessel: 9406 µg/mL
[1]; 60 minutes
  Average Concentrations of the enantiomer, Experiments SGF (1) and SGF (2): 9.127 mg/mL
  Concentration of the enantiomer in SGF (1) Vessel: 9530 µg/mL
  Concentration of the enantiomer in SGF (2) Vessel: 8725 µg/mL
[1]; [6]
  Average Concentrations of the enantiomer, Experiments SGF (1) and SGF (2): 4.163 mg/mL
  Concentration of the enantiomer in SGF (1) Vessel: 3624 µg/mL
  Concentration of the enantiomer in SGF (2) Vessel: 4702 µg/mL
[1]; SGF pH 1.2, 60 minutes
  course of release from the capsule: leveled off after 11 minutes
[1]; SGF samples stored benchtop in a clear vial
  cause of decrease in concentration at approximately 72 hours: light degradation
Dopamine receptors
  less active as a dopamine agonist than the S(−) enantiomer: more than 5,000 fold
Male beagle dogs; 70 kg individual
  human dose equivalent to dog MTD: about 3,000 mg
Male beagle dogs; non-naïve dogs
  MTD greater than for the S(−) enantiomer: about 10,000 fold
  NOAEL greater than for the S(−) enantiomer: approximately 20,000 fold
Male beagle dogs; [7]
  MTD: 75 mg/kg
  NOAEL: 25 mg/kg
[2]
  lower affinity for the D2S receptor subtype than the S(−) enantiomer: > 10,000 fold
[3]
  lower affinity for the D2L receptor subtype than the S(−) enantiomer: > 10,000 fold
[4]
  IC50: 12 µM
  Ki: 2.7 µM
[4]; R(+) versus S(−)
  less affinity for the D3 receptor subtype than the S(−) enantiomer: about 5,000 fold
[5]
  IC50: > 100 µM
  Ki: > 100 µM
